# Source: the NIST ThermoML archive (doi:10.1021/je101130e)
# Numbers after ± are expanded uncertainties.
# Assay: mn = molality of the nth substance listed, in mol/kg
# Details: 298.15 K, 101 kPa, Liquid, Vibrating tube method
structure (smiles),measurement,setting,value
ClCCl [dichloromethane] + CCOS(=O)(=O)[O-].CCn1cc[n+](C)c1,mass density,m2 = 0.003931,1316.39 ± 10 kg/m3
same,mass density,m2 = 0.1352,1316.68 ± 10 kg/m3
